Laboratory results as given in ChEMBL document CHEMBL1145787, “Synthesis and structure-activity relationship of N-substituted 4-arylsulfonylpiperidine-4-hydroxamic acids as novel, orally active matrix metalloproteinase inhibitors for the treatment of osteoarthritis” (J Med Chem, 2003).

Test system: Rattus norvegicus
Test: In vivo inhibition of Matrix metalloprotease enzyme by Sponge-wrapped cartilage assay at 25 mg/kg. po. qd
Type: functional

For `COc1ccc(S(=O)(=O)C(C)(Cc2ccc(OCCN3CCCCC3)cc2)C(=O)NO)cc1` (stereo unspecified), the Protection was 68%.
